Measured values: patent US20150177202A1, “ODOR THRESHOLD TEST” (University of Tennessee Research Foundation, priority 2013, published 2015)
Several values for one entry are separate records, joined by “and”; a condition that tells them apart may be missing. Equal values may be shown once.

Tests used:
trigeminal nerve = details: cited from earlier work
olfactory system = assay: WUTC Odor Threshold Test (yes-no detection of odorant dilutions in water, signal detection analysis); type: in vivo, human; set-up: Estimated odorant threshold, Mean / Mean estimated threshold / Estimated odorant threshold, Minimum: unit not given here; details: for Threshold: combined trials of all 33 subjects, logistic regression, p=0.5; for Estimated threshold compared with literature value: in vivo; for Estimated odorant threshold, Maximum: maximum of individual participant thresholds, in ppm; for Estimated odorant threshold, Mean: mean of individual participant thresholds; for Estimated odorant threshold, Minimum: minimum of individual participant thresholds
Excerpt: The present study involved the creation and study of a new test of olfactory ability, deemed the Wheeler University of Tennessee, Chattanooga (WUTC) Odor Threshold Test. This test was developed building upon the methodology behind signal detection theory as it allowed for multiple measures of olfactory ability to be calculated from a single test. These measures are sensitivity, response-bias, and threshold. Unlike currently available threshold tests, the WUTC Odor Threshold Test utilizes a randomized, multiple odor administration along with the presentation of blank concentrations.
A total of thirty three participants (N=33), collected from the UTC campus, were administered the WUTC threshold test.
To make the test, odorant molecules were first dissolved in a purified H2O solvent following their individual levels of solubility to create standard solutions. These standards were the highest concentration for each odorant and the base from which all successive dilutions were made. Liquid odorants ethanol, pinene, and isoamyl acetate were diluted by volume whereas para-cresol and vanillin were diluted by mass. Each standard was rounded to the nearest μL. A total of nine concentrations were made from each standard solution and diluted at a ratio of 1:2. The highest concentration for each odor as well as concentration ranges were chosen based on literature threshold values and a small, preliminary testing period. Solutions (10 mL) of each odorant were diluted and contained in sterilized and dried glass vials with black, screw-top lids (see FIG. 12).
Blanks were made using 10 mL of the same purified H2O used as a solvent for the other odorants. The final test contained 45 vials with odorant concentrations and nine blanks for a total of 54 vials. Tests were remade after either one month or ten administrations had been reached to avoid any amount of loss of odor strength that could result from extended shelf time or exposure to air during administrations. Before reproducing the test, vials underwent sterilization and drying procedures.
Each subject was instructed to complete the provided demographic form (see below). […] Each participant was then seated in a cushioned, high backed chair facing away from a table where each testing vial was placed. In a brief tutorial to the test, subjects were instructed that they would be presented with a number of vials, some containing odors and some not, one at a time. Subjects were then told that they would only be required to smell the contents of the vial and verbally give a “yes” or “no” answer as to whether they detected anything. […] Once the subject felt comfortable with the instructions presented in this tutorial, the actual test was started.
Following a randomly generated number sequence for each subject, a seated test administrator would select the correspondingly numbered test vial for each trial, place it in tongs, and hand it to a second administrator that, like the participant, was facing away from the administration table. […] The “yes” or “no” response given by the subject was recorded by the first administrator and the vial and tongs were returned to him/her by the second administrator. This procedure was repeated for each of the odorant tubes in the test with each tube presented to the participant twice.

[1] = system: premature newborn infants; details: olfactory stimulation; cited from earlier work
[2] = concentration 1 (lowest), combined participant trials
[3] = concentration 2, combined participant trials
[4] = concentration 3, combined participant trials
[5] = concentration 4, combined participant trials
[6] = concentration 5, combined participant trials
[7] = concentration 6, combined participant trials
[8] = concentration 7, combined participant trials
[9] = concentration 8, combined participant trials
[10] = concentration 9 (highest), combined participant trials

Structure (SMILES): CCO [Ethanol, ethanol]
- Concentration causing irritation of the trigeminal nerve (trigeminal nerve): over 1000 ppm
- Mean estimated threshold (olfactory system; African Americans): 112.069
- Mean estimated threshold (olfactory system; Caucasians): 344.968
- Threshold (olfactory system): 263.750 ppm
- Mean A′ (olfactory system; [2]): 0.757
- Mean d′ (olfactory system; [2]): 0.898
- Mean A′ (olfactory system; [3]): 0.716
- Mean d′ (olfactory system; [3]): 0.704
- Mean A′ (olfactory system; [4]): 0.514
- Mean d′ (olfactory system; [4]): 0.035
- Mean A′ (olfactory system; [5]): 0.741
- Mean d′ (olfactory system; [5]): 0.819
- Mean A′ (olfactory system; [6]): 0.561
- Mean d′ (olfactory system; [6]): 0.16
- Mean A′ (olfactory system; [7]): 0.766
- Mean d′ (olfactory system; [7]): 0.941
- Mean A′ (olfactory system; [8]): 0.668
- Mean d′ (olfactory system; [8]): 0.513
- Mean A′ (olfactory system; [9]): 0.789
- Mean d′ (olfactory system; [9]): 1.066
- Mean A′ (olfactory system; [10]): 0.804
- Mean d′ (olfactory system; [10]): 1.154
- Estimated threshold compared with literature value (olfactory system): at or within literature values
- Estimated odorant threshold, Maximum (olfactory system): 942.747
- Estimated odorant threshold, Mean (olfactory system): 251.808
- Estimated odorant threshold, Minimum (olfactory system): 1.057
- Mean estimated threshold (olfactory system; participants with headaches (N=8)): 396.631
- Mean estimated threshold (olfactory system; participants without headaches (N=12)): 155.260

Structure (SMILES): CC(=O)OCCC(C)C [Isoamyl Acetate, isoamyl acetate]
- Threshold (olfactory system): 38.274 ppm
- Mean A′ (olfactory system; [2]): 0.407
- Mean d′ (olfactory system; [2]): −0.249
- Mean A′ (olfactory system; [3]): 0.424
- Mean d′ (olfactory system; [3]): −0.198
- Mean A′ (olfactory system; [4]): 0.424
- Mean d′ (olfactory system; [4]): −0.198
- Mean A′ (olfactory system; [5]): 0.478
- Mean d′ (olfactory system; [5]): −0.053
- Mean A′ (olfactory system; [6]): 0.716
- Mean d′ (olfactory system; [6]): 0.704
- Mean A′ (olfactory system; [7]): 0.716
- Mean d′ (olfactory system; [7]): 0.704
- Mean A′ (olfactory system; [8]): 0.796
- Mean d′ (olfactory system; [8]): 1.11
- Mean A′ (olfactory system; [9]): 0.826
- Mean d′ (olfactory system; [9]): 1.299
- Mean A′ (olfactory system; [10]): 0.781
- Mean d′ (olfactory system; [10]): 1.024
- Estimated threshold compared with literature value (olfactory system): below its literature value
- Estimated odorant threshold, Maximum (olfactory system): 65.102
- Estimated odorant threshold, Mean (olfactory system): 13.935
- Estimated odorant threshold, Minimum (olfactory system): 0.513

Structure (SMILES): CC1=CCC2CC1C2(C)C [Pinene, L-α-pinene]
- Activity as an irritant (trigeminal nerve): nearly inactive as an irritant
- Threshold (olfactory system): 275.598 ppm
- Mean A′ (olfactory system; [2]): 0.407
- Mean d′ (olfactory system; [2]): −0.249
- Mean A′ (olfactory system; [3]): 0.757
- Mean d′ (olfactory system; [3]): 0.898
- Mean A′ (olfactory system; [4]): 0.561
- Mean d′ (olfactory system; [4]): 0.16
- Mean A′ (olfactory system; [5]): 0.514
- Mean d′ (olfactory system; [5]): 0.035
- Mean A′ (olfactory system; [6]): 0.668
- Mean d′ (olfactory system; [6]): 0.513
- Mean A′ (olfactory system; [7]): 0.724
- Mean d′ (olfactory system; [7]): 0.742
- Mean A′ (olfactory system; [8]): 0.847
- Mean d′ (olfactory system; [8]): 1.458
- Mean A′ (olfactory system; [9]): 0.901
- Mean d′ (olfactory system; [9]): 2.097
- Mean A′ (olfactory system; [10]): 0.875
- Mean d′ (olfactory system; [10]): 1.72
- Estimated threshold compared with literature value (olfactory system): greater than values found
- Estimated odorant threshold, Maximum (olfactory system): 795.338
- Estimated odorant threshold, Mean (olfactory system): 251.225
- Estimated odorant threshold, Minimum (olfactory system): 0.778

Structure (SMILES): COc1cc(C=O)ccc1O [Vanillin, vanillin]
- Threshold (olfactory system): 112.426 ppm
- Mean A′ (olfactory system; [2]): 0.39
- Mean d′ (olfactory system; [2]): −0.302
- Mean A′ (olfactory system; [3]): 0.478
- Mean d′ (olfactory system; [3]): −0.053
- Mean A′ (olfactory system; [4]): 0.531
- Mean d′ (olfactory system; [4]): 0.077
- Mean A′ (olfactory system; [5]): 0.625
- Mean d′ (olfactory system; [5]): 0.359
- Mean A′ (olfactory system; [6]): 0.561
- Mean d′ (olfactory system; [6]): 0.16
- Mean A′ (olfactory system; [7]): 0.678
- Mean d′ (olfactory system; [7]): 0.55
- Mean A′ (olfactory system; [8]): 0.781
- Mean d′ (olfactory system; [8]): 1.024
- Mean A′ (olfactory system; [9]): 0.796
- Mean d′ (olfactory system; [9]): 1.11
- Mean A′ (olfactory system; [10]): 0.888
- Mean d′ (olfactory system; [10]): 1.885
- Estimated threshold compared with literature value (olfactory system): greater than values found
- Estimated odorant threshold, Maximum (olfactory system): 339.932
- Estimated odorant threshold, Mean (olfactory system): 119.978 and 19.978
- Estimated odorant threshold, Minimum (olfactory system): 2.619
- Mean estimated threshold (olfactory system; subjects with asthma (N=8)): 207.137
- Mean estimated threshold (olfactory system; subjects without asthma (N=18)): 86.084
- Effect on apnea [1]: significantly prevent apnea

Structure (SMILES): CCCCO [n-butanol, reference compound]
- Concentration causing irritation of the trigeminal nerve (trigeminal nerve): approximately 200 ppm

Structure (SMILES): Cc1ccc(O)cc1 [para-cresol]
- Threshold (olfactory system): 1.058 ppm
- Mean A′ (olfactory system; [2]): 0.356
- Mean d′ (olfactory system; [2]): −0.416
- Mean A′ (olfactory system; [3]): 0.561
- Mean d′ (olfactory system; [3]): 0.16
- Mean A′ (olfactory system; [4]): 0.614
- Mean d′ (olfactory system; [4]): 0.32
- Mean A′ (olfactory system; [5]): 0.614
- Mean d′ (olfactory system; [5]): 0.32
- Mean A′ (olfactory system; [6]): 0.313
- Mean d′ (olfactory system; [6]): 0.475
- Mean A′ (olfactory system; [7]): 0.804
- Mean d′ (olfactory system; [7]): 1.154
- Mean A′ (olfactory system; [8]): 0.847
- Mean d′ (olfactory system; [8]): 1.458
- Mean A′ (olfactory system; [9]): 0.84
- Mean d′ (olfactory system; [9]): 1.403
- Mean A′ (olfactory system; [10]): 0.908
- Mean d′ (olfactory system; [10]): 2.246
- Estimated threshold compared with literature value (olfactory system): at or within literature values
- Estimated odorant threshold, Maximum (olfactory system): 5.28
- Estimated odorant threshold, Mean (olfactory system): 1.340
- Estimated odorant threshold, Minimum (olfactory system): 0.005
